For 13 compounds, IC50 results are on record in US9242970B2 (ACTELION PHARMACEUTICALS LTD., priority 2010, dated 2016).

One assay concerns the target human orexin-2 receptor (Homo sapiens (Human), UniProt O43614). Nature of the assay: In vitro assay: intracellular calcium measurements (FLIPR), antagonistic activity. It is filed as cell-based. The note with it: CHO cells, 3 nM orexin-A, compound incubation 120 min; marked values are geometric means of n = 2-6; read-out: IC50 OX2.
The target of a further assay is human orexin-1 receptor (Homo sapiens (Human), UniProt O43613). The assay is described as above. The class given is cell-based. The conditions noted are these: CHO cells, 3 nM orexin-A, compound incubation 120 min; marked values are geometric means of n = 2-6; read-out: IC50 OX1.
Sequence of human orexin-1 receptor (O43613 whole entry): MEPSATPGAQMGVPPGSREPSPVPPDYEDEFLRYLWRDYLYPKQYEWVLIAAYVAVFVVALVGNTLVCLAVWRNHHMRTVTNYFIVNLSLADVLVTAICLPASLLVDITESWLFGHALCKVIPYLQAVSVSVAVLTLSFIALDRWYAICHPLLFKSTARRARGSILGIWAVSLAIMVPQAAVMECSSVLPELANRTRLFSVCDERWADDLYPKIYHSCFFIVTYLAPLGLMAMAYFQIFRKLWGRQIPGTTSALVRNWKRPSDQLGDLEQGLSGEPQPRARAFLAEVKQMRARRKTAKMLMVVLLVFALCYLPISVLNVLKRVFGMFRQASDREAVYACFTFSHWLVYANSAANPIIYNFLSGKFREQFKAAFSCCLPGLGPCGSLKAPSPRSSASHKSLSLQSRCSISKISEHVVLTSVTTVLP

Sequence of human orexin-2 receptor (O43614 whole entry): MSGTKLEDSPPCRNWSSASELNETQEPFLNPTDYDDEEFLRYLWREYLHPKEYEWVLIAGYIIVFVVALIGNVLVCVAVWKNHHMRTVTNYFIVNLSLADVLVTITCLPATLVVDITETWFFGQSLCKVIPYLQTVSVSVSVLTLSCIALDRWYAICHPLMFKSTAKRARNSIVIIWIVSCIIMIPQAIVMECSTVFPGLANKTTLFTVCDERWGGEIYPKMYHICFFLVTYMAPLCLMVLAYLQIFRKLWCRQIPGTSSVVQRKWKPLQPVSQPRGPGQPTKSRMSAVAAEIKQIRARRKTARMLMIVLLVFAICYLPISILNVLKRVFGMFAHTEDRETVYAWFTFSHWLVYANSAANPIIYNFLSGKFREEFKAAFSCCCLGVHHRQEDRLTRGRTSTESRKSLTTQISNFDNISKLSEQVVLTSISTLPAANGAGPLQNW

In the case of `COc1cccc(OC)c1C1CC(C)C(=O)N1Cc1cc2cc(F)ccc2n1C` (centres unmarked) [Example 390, 5-(2,6-dimethoxyphenyl)-1-((5-fluoro-1-methyl-1H-indol-2-yl)methyl)-3-methylpyrrolidin-2-one], the results for the IC50 on human orexin-2 receptor and at human orexin-1 receptor were 0.142 µM and 0.08 µM, respectively.
Consider `COc1cccc(OC)c1C1CC(C)C(=O)N1Cc1ccc2c(ccn2C)c1` (centres unmarked) [Example 391, 5-(2,6-dimethoxyphenyl)-3-methyl-1-((1-methyl-1H-indol-5-yl)methyl)pyrrolidin-2-one], for which the results for the IC50 at human orexin-2 receptor and at human orexin-1 receptor were 0.529 µM and 0.175 µM, respectively.
Take `COc1cccc(OC)c1C1CC(C)C(=O)N1Cc1ccc2[nH]ccc2c1` (centres unmarked) [Example 392, 1-((1H-indol-5-yl)methyl)-5-(2,6-dimethoxyphenyl)-3-methylpyrrolidin-2-one]: the IC50 on human orexin-2 receptor was 1.78 µM; on human orexin-1 receptor it was 0.81 µM.
In the same order, the values of `COc1cccc(OC)c1C1CC(C)C(=O)N1Cc1ccc2sc(C)nc2c1` (centres unmarked) [Example 393, 5-(2,6-dimethoxyphenyl)-3-methyl-1-((2-methylbenzo[d]thiazol-5-yl)methyl)pyrrolidin-2-one] are 0.121 µM and 0.032 µM.
For `COc1cccc(OC)c1C1CC(C)C(=O)N1Cc1ccc(OC(C)C)cc1` (centres unmarked) [Example 397, 5-(2,6-dimethoxyphenyl)-1-(4-isopropoxybenzyl)-3-methylpyrrolidin-2-one], the IC50 at human orexin-2 receptor came out at 0.37 µM; on human orexin-1 receptor it was 0.265 µM.
In the same order, the values of `COc1cccc(OC)c1C1CC(C)C(=O)N1Cc1ccc(SC(F)(F)F)cc1` (centres unmarked) [Example 398, 5-(2,6-dimethoxyphenyl)-3-methyl-1-(4-((trifluoromethyl)thio)benzyl)pyrrolidin-2-one] are 0.428 µM and 0.277 µM.
`COc1cccc(OC)c1C1CC(C)C(=O)N1Cc1ccc(OC(F)(F)C(F)F)cc1` (centres unmarked) [Example 399, 5-(2,6-dimethoxyphenyl)-3-methyl-1-(4-(1,1,2,2-tetrafluoroethoxy)benzyl)pyrrolidin-2-one]: the IC50 came to 0.124 µM on human orexin-2 receptor and 0.172 µM on human orexin-1 receptor.
As for `COc1cccc(OC)c1C1CC(C)C(=O)N1Cc1ccc(OC(F)(F)F)c(F)c1` (centres unmarked) [Example 400, 5-(2,6-dimethoxyphenyl)-1-(3-fluoro-4-(trifluoromethoxy)benzyl)-3-methylpyrrolidin-2-one], the 50% inhibitory concentration (IC50) on human orexin-2 receptor came out at 0.183 µM; at human orexin-1 receptor, 0.151 µM.
For `COc1cccc(OC)c1C1CC(C)C(=O)N1Cc1ccc(OC(F)F)c(Cl)c1` (centres unmarked) [Example 401, 1-(3-chloro-4-(difluoromethoxy)benzyl)-5-(2,6-dimethoxyphenyl)-3-methylpyrrolidin-2-one], in that order: 0.155 µM and 0.164 µM.
With `COc1cccc(OC)c1C1CC(C)C(=O)N1Cc1ccc(OC(F)F)cc1` (centres unmarked) [Example 402, 1-(4-(difluoromethoxy)benzyl)-5-(2,6-dimethoxyphenyl)-3-methylpyrrolidin-2-one], the IC50 at human orexin-2 receptor is 0.621 µM; at human orexin-1 receptor, 0.271 µM.
With `COc1ccc(OC(F)(F)F)cc1CN1C(=O)C(C)CC1c1c(OC)cccc1OC` (centres unmarked) [Example 403, 5-(2,6-dimethoxyphenyl)-1-(2-methoxy-5-(trifluoromethoxy)benzyl)-3-methylpyrrolidin-2-one], the results for the IC50 on human orexin-2 receptor and on human orexin-1 receptor were 0.449 µM and 0.532 µM, respectively.
In the same order, the values of `COc1ccc(CN2C(=O)C(C)CC2c2c(OC)cccc2OC)cc1OC(F)(F)F` (centres unmarked) [Example 404, 5-(2,6-dimethoxyphenyl)-1-(4-methoxy-3-(trifluoromethoxy)benzyl)-3-methylpyrrolidin-2-one] are 0.513 µM and 0.965 µM.
In the same order, the values of `COc1cccc(OC)c1C1CC(C)C(=O)N1Cc1ccccc1OC(F)(F)F` (centres unmarked) [Example 405, 5-(2,6-dimethoxyphenyl)-3-methyl-1-(2-(trifluoromethoxy)benzyl)pyrrolidin-2-one] are 0.087 µM and 0.555 µM.
